Data as given in patent US20240383875A1, “Benzimidazole Pyridine Derivatives” (Hoffmann-La Roche Inc., priority 2022, published 2024).

How the values were obtained:
Type in all cases: biochemical
[1] = target: SIK1 (Homo sapiens, UniProt P57059); test: Enzymatic activity assay SIK1, RapidFire mass spectrometry (phosphorylation of CHK-peptide); conditions: RapidFire MS, inhibition of SIK1; read-out: SIK1 RF IC50
Method in brief: (§1)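 Compounds (12-point, 3-fold, generally 30 μM to 170 pM) were pre-incubated 30 min at ambient temperature with SIK1 (5 nM), SIK2 (0.5 nM) or SIK3 (1.5 nM) in HEPES pH 7.0/magnesium acetate buffer. CHK-peptide (10 μM solution) and ATP (100 μM solution) were then added for 45 min before formic acid quench.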

[2] = target: SIK3 (Homo sapiens, UniProt Q9Y2K2); test: Enzymatic activity assay SIK3, RapidFire mass spectrometry (phosphorylation of CHK-peptide); conditions: RapidFire MS, inhibition of SIK3; read-out: SIK3 RF IC50
Method in brief: as §1

[3] = target: SIK2 (Homo sapiens, UniProt Q9H0K1); test: Enzymatic activity assay SIK2, RapidFire mass spectrometry (phosphorylation of CHK-peptide); conditions: RapidFire MS, inhibition of SIK2; read-out: SIK2 RF IC50
Method in brief: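 SIK2 (0.5 nM) in pH 7.0 HEPES buffer with 10 mM Mg acetate phosphorylates CHK-peptide (10 μM solution) with 100 μM ATP solution, 45 min ambient, then formic acid quench.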

Chain of SIK2 (Q9H0K1 whole entry): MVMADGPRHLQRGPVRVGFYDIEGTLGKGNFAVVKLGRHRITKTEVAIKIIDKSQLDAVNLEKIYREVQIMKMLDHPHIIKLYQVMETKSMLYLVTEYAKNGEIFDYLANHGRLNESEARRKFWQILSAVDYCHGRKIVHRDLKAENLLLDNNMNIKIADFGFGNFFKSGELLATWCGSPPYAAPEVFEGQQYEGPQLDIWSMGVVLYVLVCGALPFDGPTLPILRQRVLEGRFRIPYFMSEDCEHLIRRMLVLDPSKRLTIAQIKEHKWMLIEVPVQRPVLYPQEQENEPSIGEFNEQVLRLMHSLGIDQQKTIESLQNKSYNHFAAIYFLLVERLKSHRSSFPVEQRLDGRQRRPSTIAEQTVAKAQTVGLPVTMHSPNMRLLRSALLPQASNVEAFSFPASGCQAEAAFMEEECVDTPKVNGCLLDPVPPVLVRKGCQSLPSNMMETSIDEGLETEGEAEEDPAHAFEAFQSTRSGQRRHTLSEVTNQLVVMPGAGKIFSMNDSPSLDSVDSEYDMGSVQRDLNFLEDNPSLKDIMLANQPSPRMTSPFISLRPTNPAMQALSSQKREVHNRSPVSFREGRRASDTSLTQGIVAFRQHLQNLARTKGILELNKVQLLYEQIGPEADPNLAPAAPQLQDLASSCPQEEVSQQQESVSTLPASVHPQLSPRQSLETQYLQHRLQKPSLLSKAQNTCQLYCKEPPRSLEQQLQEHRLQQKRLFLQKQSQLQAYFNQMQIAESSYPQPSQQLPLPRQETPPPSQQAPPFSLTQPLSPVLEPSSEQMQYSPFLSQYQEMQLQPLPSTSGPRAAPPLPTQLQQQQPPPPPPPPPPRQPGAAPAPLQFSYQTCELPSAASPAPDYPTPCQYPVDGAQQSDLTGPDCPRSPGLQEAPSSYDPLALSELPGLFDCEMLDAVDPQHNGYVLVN
Chain of SIK1 (P57059 whole entry): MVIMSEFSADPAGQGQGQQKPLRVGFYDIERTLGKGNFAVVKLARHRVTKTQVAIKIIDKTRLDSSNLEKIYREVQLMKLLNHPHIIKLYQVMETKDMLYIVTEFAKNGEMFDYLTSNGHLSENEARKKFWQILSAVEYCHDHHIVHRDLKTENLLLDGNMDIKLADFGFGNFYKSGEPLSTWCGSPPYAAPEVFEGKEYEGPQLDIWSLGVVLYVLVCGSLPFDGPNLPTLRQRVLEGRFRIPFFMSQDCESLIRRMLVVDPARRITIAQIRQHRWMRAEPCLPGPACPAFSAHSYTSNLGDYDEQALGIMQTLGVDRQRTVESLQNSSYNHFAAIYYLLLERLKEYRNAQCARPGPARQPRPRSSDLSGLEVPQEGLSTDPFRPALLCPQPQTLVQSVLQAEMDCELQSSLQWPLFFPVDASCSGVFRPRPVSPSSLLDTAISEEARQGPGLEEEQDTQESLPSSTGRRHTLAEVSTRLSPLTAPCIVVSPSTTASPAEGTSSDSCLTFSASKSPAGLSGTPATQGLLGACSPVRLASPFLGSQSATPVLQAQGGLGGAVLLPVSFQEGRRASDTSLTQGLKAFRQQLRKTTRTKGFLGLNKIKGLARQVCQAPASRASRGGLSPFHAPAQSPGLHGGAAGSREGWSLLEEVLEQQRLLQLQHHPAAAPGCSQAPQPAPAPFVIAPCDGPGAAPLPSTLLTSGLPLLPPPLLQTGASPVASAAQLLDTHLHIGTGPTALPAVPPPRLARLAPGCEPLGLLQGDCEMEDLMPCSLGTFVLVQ
Chain of SIK3 (Q9Y2K2 whole entry): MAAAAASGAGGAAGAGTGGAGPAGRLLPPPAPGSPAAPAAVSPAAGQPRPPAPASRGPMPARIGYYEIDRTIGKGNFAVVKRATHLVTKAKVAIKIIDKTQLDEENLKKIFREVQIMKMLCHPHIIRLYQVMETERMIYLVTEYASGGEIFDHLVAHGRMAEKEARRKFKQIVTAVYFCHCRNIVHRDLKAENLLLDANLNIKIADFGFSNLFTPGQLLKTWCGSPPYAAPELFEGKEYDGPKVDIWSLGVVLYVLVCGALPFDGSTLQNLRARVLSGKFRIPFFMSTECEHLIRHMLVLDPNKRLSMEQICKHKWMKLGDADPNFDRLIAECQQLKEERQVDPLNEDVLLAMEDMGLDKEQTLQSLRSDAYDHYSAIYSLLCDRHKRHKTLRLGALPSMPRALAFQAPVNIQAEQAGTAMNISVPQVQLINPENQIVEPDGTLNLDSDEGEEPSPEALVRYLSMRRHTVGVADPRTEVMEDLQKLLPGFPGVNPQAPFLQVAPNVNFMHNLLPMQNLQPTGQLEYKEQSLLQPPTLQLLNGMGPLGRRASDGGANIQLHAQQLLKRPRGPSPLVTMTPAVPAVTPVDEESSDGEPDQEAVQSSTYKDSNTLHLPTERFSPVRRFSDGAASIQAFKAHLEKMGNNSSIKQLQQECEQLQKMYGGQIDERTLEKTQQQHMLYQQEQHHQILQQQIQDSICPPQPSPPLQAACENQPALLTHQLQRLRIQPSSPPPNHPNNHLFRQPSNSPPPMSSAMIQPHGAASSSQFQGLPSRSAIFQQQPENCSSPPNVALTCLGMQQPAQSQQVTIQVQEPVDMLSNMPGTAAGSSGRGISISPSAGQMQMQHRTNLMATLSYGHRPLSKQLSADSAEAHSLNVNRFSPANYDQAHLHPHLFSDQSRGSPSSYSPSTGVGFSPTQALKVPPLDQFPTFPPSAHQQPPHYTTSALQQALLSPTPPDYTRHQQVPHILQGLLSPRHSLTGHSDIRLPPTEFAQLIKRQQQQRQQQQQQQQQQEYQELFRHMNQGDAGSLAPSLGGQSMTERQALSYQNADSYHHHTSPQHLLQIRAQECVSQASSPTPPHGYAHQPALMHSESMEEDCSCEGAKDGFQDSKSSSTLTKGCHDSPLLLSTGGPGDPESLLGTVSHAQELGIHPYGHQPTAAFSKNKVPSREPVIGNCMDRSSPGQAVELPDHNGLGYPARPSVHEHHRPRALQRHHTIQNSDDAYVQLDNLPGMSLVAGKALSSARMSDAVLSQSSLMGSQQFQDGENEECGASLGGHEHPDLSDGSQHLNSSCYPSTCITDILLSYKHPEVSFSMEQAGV

| SMILES | IC50 [1] | IC50 [2] | IC50 [3] |
| --- | --- | --- | --- |
| COc1cc2ncn(-c3ccc(C(C)O)c(-c4cccc(Cl)c4)n3)c2cc1OC (stereo not drawn) [Example 19, 1-(2-(3-Chlorophenyl)-6-(5,6-dimethoxy-1H-benzo[d]imidazol-1-yl)pyridin-3-yl)ethan-1-ol] | 68 nM | 116 nM | 26.5 nM |
| Cc1ccc(Nc2ccc3c(c2)ncn3-c2ccc(C(C)O)c(-c3cn(CC(F)CF)nc3C)n2)nn1 (stereo not drawn) [Example 399, 1-[2-[1-(2,3-difluoropropyl)-3-methyl-pyrazol-4-yl]-6-[5-[(6-methylpyridazin-3-yl)amino]benzimidazol-1-yl]-3-pyridyl]ethanol] | 39 nM | 1 nM | 0.6 nM |
| Cc1cc(C#N)nn1-c1nc(-n2cnc3cc(Nc4cccn(C)c4=O)ccc32)ccc1C(C)O (stereo not drawn) [Example 333, 1-[3-(1-hydroxyethyl)-6-[5-[(2-keto-1-methyl-3-pyridyl)amino]benzimidazol-1-yl]-2-pyridyl]-5-methyl-pyrazole-3-carbonitrile] | 41 nM | 19.4 nM | 25.1 nM |
| COc1ccnnc1Nc1ccc2c(c1)ncn2-c1ccc(C(C)O)c(-n2nc(C#N)cc2C)n1 (stereo not drawn) [Example 160, 1-[3-(1-Hydroxyethyl)-6-[5-[(4-methoxypyridazin-3-yl)amino]benzimidazol-1-yl]-2-pyridyl]-5-methyl-pyrazole-3-carbonitrile] | 223 nM | 1.2 nM | 3.2 nM |
| Cc1ccc(Nc2ccc3c(c2)ncn3-c2ccc(C(C)O)c(-n3nc(C(F)F)cc3C#N)n2)nn1 (stereo not drawn) [Example 303, 5-(difluoromethyl)-2-[3-(1-hydroxyethyl)-6-[5-[(6-methylpyridazin-3-yl)amino]benzimidazol-1-yl]-2-pyridyl]pyrazole-3-carbonitrile] | 30 nM | 0.4 nM | 0.4 nM |
| Cc1cc(C#N)nn1-c1nc(-n2cnc3ccc(NC(=O)C4CC4)cc32)ccc1C(C)O (stereo not drawn) [Example 328, N-[3-[6-(3-cyano-5-methyl-pyrazol-1-yl)-5-(1-hydroxyethyl)-2-pyridyl]benzimidazol-5-yl]cyclopropanecarboxamide] | 127 nM | 36.5 nM | 66.1 nM |
| COCCOc1cc2c(cc1Nc1ccc(C)nn1)ncn2-c1ccc(C(C)O)c(-n2nc(C#N)cc2C)n1 (stereo not drawn) [Example 187, 1-[3-(1-Hydroxyethyl)-6-[6-(2-methoxyethoxy)-5-[(6-methylpyridazin-3-yl)amino]benzimidazol-1-yl]-2-pyridyl]-5-methyl-pyrazole-3-carbonitrile] | 70 nM | 5.6 nM | 2 nM |
| Cc1cc(C#N)nn1-c1nc(-n2cnc3cc(Nc4ccc(OC(F)F)nn4)ccc32)ccc1C(C)O (stereo not drawn) [Example 197, 1-[6-[5-[[6-(Difluoromethoxy)pyridazin-3-yl]amino]benzimidazol-1-yl]-3-(1-hydroxyethyl)-2-pyridyl]-5-methyl-pyrazole-3-carbonitrile] | 15 nM | 0.9 nM | 2.3 nM |
| Cc1ccc(Nc2ccc3c(c2)ncn3-c2ccc(C(C)O)c(-n3nc(OC(F)F)cc3C(F)F)n2)nn1 (stereo not drawn) [Example 404, 1-[2-[3-(difluoromethoxy)-5-(difluoromethyl)pyrazol-1-yl]-6-[5-[(6-methylpyridazin-3-yl)amino]benzimidazol-1-yl]-3-pyridyl]ethanol] | 41 nM | 0.5 nM | 0.5 nM |
| Cc1ccc(Nc2ccc3c(c2)ncn3-c2ccc(C(C)O)c(-c3nnn(CC(F)(F)F)c3C)n2)nn1 (stereo not drawn) [Example 311, 1-[6-[5-[(6-methylpyridazin-3-yl)amino]benzimidazol-1-yl]-2-[5-methyl-1-(2,2,2-trifluoroethyl)triazol-4-yl]-3-pyridyl]ethanol] | 17 nM | 0.3 nM | 0.3 nM |
| Cc1ccc(Nc2ccc3c(c2)ncn3-c2ccc(C(C)O)c(-c3cccc4[nH]nnc34)n2)nn1 (stereo not drawn) [Example 194, 1-[2-(1H-Benzotriazol-4-yl)-6-[5-[(6-methylpyridazin-3-yl)amino]benzimidazol-1-yl]-3-pyridyl]ethanol] | 3330 nM | 29.5 nM | 288 nM |
